Results: patent publication US20160068514A1, “HALO AND TRIFLUOROMETHYL SUBSTITUTED OREXIN RECEPTOR ANTAGONISTS” (MERCK SHARP & DOHME CORP., priority 2013, published 2016)

How the values were obtained:
[1] = target: T1, human orexin-2 receptor (hOX2R) (Homo sapiens, UniProt O43614); assay: FLIPR Ca2+ Flux Assay, hOX2R; assay type: cell-based; settings: CHO cells expressing hOX2R; agonist Ala-6,12 human orexin-A 70 pM
T1 construct: expressed in transfected cells; host or cells: Chinese hamster ovary (CHO) cells
T1 sequence (O43614 1-444): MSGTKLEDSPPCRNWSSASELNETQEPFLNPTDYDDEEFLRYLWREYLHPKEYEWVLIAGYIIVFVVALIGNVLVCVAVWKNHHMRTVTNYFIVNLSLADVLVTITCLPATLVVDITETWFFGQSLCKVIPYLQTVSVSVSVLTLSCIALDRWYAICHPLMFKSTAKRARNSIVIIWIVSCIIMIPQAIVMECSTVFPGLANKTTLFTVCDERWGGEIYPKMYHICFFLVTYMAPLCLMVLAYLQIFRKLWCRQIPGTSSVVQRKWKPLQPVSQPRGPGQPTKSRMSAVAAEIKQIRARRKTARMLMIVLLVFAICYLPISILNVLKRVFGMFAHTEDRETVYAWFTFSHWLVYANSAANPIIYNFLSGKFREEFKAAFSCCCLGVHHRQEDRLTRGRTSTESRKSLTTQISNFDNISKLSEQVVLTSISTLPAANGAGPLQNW
Text: (§1) The utility of the compounds in accordance with the present invention as orexin receptor OX1R and/or OX2R antagonists may be readily determined without undue experimentation by methodology well known in the art, including the “FLIPR Ca^2+ Flux Assay” (Okumura et al., Biochem. Biophys. Res. Comm. 2001, 280:976-981). Briefly, for intracellular calcium measurements, Chinese hamster ovary (CHO) cells expressing the orexin-1 receptor (e.g., rat or human) or the orexin-2 receptor (e.g., rat or human), are grown in Iscove's modified DMEM containing 2 mM L-glutamine, […], 1% hypoxanthine-thymidine supplement, 100 U/ml penicillin, 100 μg/ml streptomycin and 10% heat-inactivated fetal calf serum (FCS). The cells are seeded at approximately 20,000 cells per well into 384-well clear bottom sterile plates coated with poly-D-lysine. The seeded plates are incubated overnight at 37° C. and 5% CO2. Human ala-6,12 orexin-A can be used as the agonist and prepared as a 1 mM stock solution in 1% bovine serum albumin (BSA) and diluted in assay buffer (HBSS containing 20 mM HEPES, 0.1% BSA and 2.5 mM probenecid, pH7.4) for use in the assay at a final concentration of 70 pM. Test compounds are prepared as 10 mM stock solution in DMSO, then diluted in 384-well plates, first in DMSO, then in assay buffer. On the day of the assay, cells are washed 3 times with 100 μl assay buffer and then incubated for 60 minutes (37° C., 5% CO2) in 60 μl assay buffer containing 1 μM Fluo-4AM ester, 0.02% pluronic acid, and 1% BSA. The dye loading solution is then aspirated and cells are washed 3 times with 100 μl assay buffer. 30 μl of that same buffer is left in each well. Within the Fluorescent Imaging Plate Reader (FLIPR, Molecular Devices), test compounds are added to the plate in a volume of 25 μl, incubated for 5 minutes, and then 25 μl of agonist is added. Fluorescence is measured for each well at 1 second intervals for 5 minutes, and the height of each fluorescence peak is compared to the height of the fluorescence peak induced by 70 pM of agonist ala-6,12 orexin-A with buffer in place of test compound. IC50 value for the test compound is determined to be the concentration of compound needed to inhibit 50% of the agonist response. Alternatively, compound potency can be assessed using a radioligand binding assay (described in Bergman et. al. Bioorg. Med. Chem. Lett. 2008, 18:1425-1430) in which the inhibition constant (Ki) is determined in membranes prepared from CHO cells expressing either the OX1 or OX2 receptor. The intrinsic orexin receptor antagonist activity of a compound of the present invention may be determined by these assays.
(§2) Chinese hamster ovary (CHO) cells expressing the human orexin-1 receptor (hOX1R) or the human orexin-2 receptor (hOX2R) were grown in Iscove's modified DMEM containing 2 mM L-glutamine, […], 1% hypoxanthine-thymidine supplement, 100 U/ml penicillin, 100 μg/ml streptomycin and 10% heat-inactivated fetal calf serum (FCS). The cells were seeded at −20,000 cells/well into Becton-Dickinson black 384-well clear bottom sterile plates coated with poly-D-lysine. All reagents were from GIBCO-Invitrogen Corp. The seeded plates were incubated overnight at 37° C. and 5% CO2. Ala-6,12 human orexin-A, used as the agonist, was prepared as a 1 mM stock solution in 1% bovine serum albumin (BSA) and diluted in assay buffer (HBSS containing 20 mM HEPES, 0.1% BSA and 2.5 mM probenecid, pH7.4) for use in the assay at a final concentration of 70 pM. Test compounds were prepared as 10 mM stock solution in DMSO, then diluted in 384-well plates, first in DMSO, then assay buffer.
(§3) On the day of the assay, cells were washed 3× with 100 μl assay buffer and then incubated for 60 minutes (37° C., 5% CO2) in 60 μl assay buffer containing 1 μM Fluo-4AM ester, 0.02% pluronic acid, and 1% BSA. The dye loading solution was then aspirated and cells were washed 3× with 100 μl assay buffer. 30 μl of that same buffer was left in each well. […]

[2] = target: T2, human orexin-1 receptor (hOX1R) (Homo sapiens, UniProt O43613); assay: FLIPR Ca2+ Flux Assay, hOX1R; assay type: cell-based; settings: CHO cells expressing hOX1R; agonist Ala-6,12 human orexin-A 70 pM
T2 construct: expressed in transfected cells; host or cells: Chinese hamster ovary (CHO) cells
T2 sequence (O43613 1-425): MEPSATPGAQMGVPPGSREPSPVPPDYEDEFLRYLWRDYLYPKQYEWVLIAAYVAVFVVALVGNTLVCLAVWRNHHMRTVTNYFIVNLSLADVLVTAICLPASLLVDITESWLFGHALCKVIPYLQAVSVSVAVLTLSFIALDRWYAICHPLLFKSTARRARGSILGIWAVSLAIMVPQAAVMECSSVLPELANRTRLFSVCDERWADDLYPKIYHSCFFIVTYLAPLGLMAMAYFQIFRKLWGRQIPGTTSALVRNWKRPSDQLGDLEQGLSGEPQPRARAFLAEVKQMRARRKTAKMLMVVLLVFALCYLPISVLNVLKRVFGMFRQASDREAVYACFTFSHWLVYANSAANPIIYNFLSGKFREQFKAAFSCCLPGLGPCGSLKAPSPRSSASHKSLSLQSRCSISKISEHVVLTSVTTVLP
Text: as §1, §2, §3

| IC50 [1] [µM] | IC50 [2] [µM] | Structure (SMILES) |
| --- | --- | --- |
| 0.0385 | 0.839 | C[C@@H]1CC[C@@H](Oc2nccc(C(F)(F)F)c2F)CN1C(=O)c1ccccc1-n1nccn1 [Example 1, 3-Fluoro-2-{[(3R,6R)-6-methyl-1-{[2-(2H-1,2,3-triazol-2-yl)phenyl]carbonyl}piperidin-3-yl]oxy}-4-(trifluoromethyl)pyridine] |
| 0.105 |  | COc1ccc(C(=O)N2C[C@H](Oc3nccc(C(F)(F)F)c3F)CC[C@H]2C)c(-n2nccn2)n1 [Example 2, 3-fluoro-2-{[(3R,6R)-1-{[6-methoxy-2-(2H-1,2,3-triazol-2-yl)pyridin-3-yl]carbonyl}-6-methylpiperidin-3-yl]oxy}-4-(trifluoromethyl)pyridine] |
| 0.0178 | 0.377 | C[C@@H]1CC[C@@H](Oc2cc(C(F)(F)F)ccn2)CN1C(=O)c1ccccc1-n1nccn1 [Example 3, 2-{[(3R,6R)-6-methyl-1-{[2-(2H-1,2,3-triazol-2-yl)phenyl]carbonyl}piperidin-3-yl]oxy}-4-(trifluoromethyl)pyridine] |
| 0.0088 | 0.118 | Cc1c(I)ccnc1O[C@@H]1CC[C@@H](C)N(C(=O)c2ccccc2-n2nccn2)C1 [Example 4, 4-iodo-3-methyl-2-{[(3R,6R)-6-methyl-1-{[2-(2H-1,2,3-triazol-2-yl)phenyl]carbonyl}piperidin-3-yl]oxy}pyridine] |
| 0.0073 | 0.414 | C[C@@H]1CC[C@@H](Oc2cc(I)ccn2)CN1C(=O)c1ccccc1-n1nccn1 [Example 5, 4-iodo-2-{[(3R,6R)-6-methyl-1-{[2-(2H-1,2,3-triazol-2-yl)phenyl]carbonyl}piperidin-3-yl]oxy}pyridine] |
| 0.01 | 0.828 | C[C@@H]1CC[C@@H](Oc2cc(C(F)(F)F)ccn2)CN1C(=O)c1ccccc1-n1ncnn1 [Example 6, 2-{[(3R,6R)-6-Methyl-1-{[2-(2H-tetrazol-2-yl)phenyl]carbonyl}piperidin-3-yl]oxy}-4-(trifluoromethyl)pyridine] |
| 0.0857 |  | COc1ccc(C(=O)N2C[C@H](Oc3cc(Cl)ccn3)CC[C@H]2C)c(-n2nccn2)n1 [Example 7, 3-({(2R,5R)-5-[(4-chloropyridin-2-yl)oxy]-2-methylpiperidin-1-yl}carbonyl)-6-methoxy-2-(2H-1,2,3-triazol-2-yl)pyridine] |
| 0.0493 | 2.5 | COc1ccc(C(=O)N2C[C@H](Oc3nccc(I)c3OC)CC[C@H]2C)c(-n2nccn2)n1 [Example 8, 4-iodo-3-methoxy-2-{[(3R,6R)-1-{[6-methoxy-2-(2H-1,2,3-triazol-2-yl)pyridin-3-yl]carbonyl}-6-methylpiperidin-3-yl]oxy}pyridine] |
| 0.0363 |  | COc1ccc(C(=O)N2C[C@H](Oc3cc(Br)ccn3)CC[C@H]2C)c(-n2nccn2)n1 [Example 9, 3-({(2R,5R)-5-[(4-bromopyridin-2-yl)oxy]-2-methylpiperidin-1-yl}carbonyl)-6-methoxy-2-(2H-1,2,3-triazol-2-yl)pyridine] |
| 0.055 | 3.85 | C[C@@H]1CC[C@@H](Oc2cc(F)ccn2)CN1C(=O)c1ccccc1-n1ncnn1 [Example 10, 4-fluoro-2-{[(3R,6R)-6-methyl-1-{[2-(2H-tetrazol-2-yl)phenyl]carbonyl}piperidin-3-yl]oxy}pyridine] |
| 0.01 | 0.917 | C[C@@H]1CC[C@@H](Oc2cc(Cl)ccn2)CN1C(=O)c1ccccc1-n1ncnn1 [Example 11] |
| 0.01 | 0.986 | C[C@@H]1CC[C@@H](Oc2cc(Br)ccn2)CN1C(=O)c1ccccc1-n1ncnn1 [Example 12, 4-bromo-2-{[(3R,6R)-6-methyl-1-{[2-(2H-tetrazol-2-yl)phenyl]carbonyl}piperidin-3-yl]oxy}pyridine] |
| 0.467 |  | COc1ccc(C(=O)N2C[C@H](Oc3cc(F)ccn3)CC[C@H]2C)c(-n2nccn2)n1 [Example 13, 3-({(2R,5R)-5-[(4-fluoropyridin-2-yl)oxy]-2-methylpiperidin-1-yl}carbonyl)-6-methoxy-2-(2H-1,2,3-triazol-2-yl)pyridine] |
| 0.0787 |  | COc1ccc(C(=O)N2C[C@H](Oc3nccc(I)c3OC)CC[C@H]2C)c(-c2ncccn2)n1 [Example 14, 2-[3-({(2R,5R)-5-[(4-Iodo-3-methoxypyridin-2-yl)oxy]-2-methylpiperidin-1-yl}carbonyl)-6-methoxypyridin-2-yl]pyrimidine] |
| 0.0108 | 0.548 | C[C@@H]1CC[C@@H](Oc2cc(Cl)ccn2)CN1C(=O)c1ccccc1-n1nccn1 [Example 15, 4-Chloro-2-{[(3R,6R)-6-methyl-1-{[2-(2H-1,2,3-triazol-2-yl)phenyl]carbonyl}piperidin-3-yl]oxy}pyridine] |
| 0.034 | 2.31 | C[C@@H]1CC[C@@H](Oc2cc(F)ccn2)CN1C(=O)c1ccccc1-n1nccn1 [Example 16, 4-fluoro-2-{[(3R,6R)-6-methyl-1-{[2-(2H-1,2,3-triazol-2-yl)phenyl]carbonyl}piperidin-3-yl]oxy}pyridine] |
| 0.0038 | 0.179 | C[C@@H]1CC[C@@H](Oc2cc(Br)ccn2)CN1C(=O)c1ccccc1-n1nccn1 [Example 17, 4-bromo-2-{[(3R,6R)-6-methyl-1-{[2-(2H-1,2,3-triazol-2-yl)phenyl]carbonyl}piperidin-3-yl]oxy}pyridine] |
| 0.132 |  | C[C@@H]1CC[C@@H](Oc2cccc(F)c2)CN1C(=O)c1ccccc1-n1nccn1 [Example 18, (2R,5R)-5-(3-fluorophenoxy)-2-methyl-1-{[2-(2H-1,2,3-triazol-2-yl)phenyl]carbonyl}piperidine] |
